Test results taken from patent US20230109708A1, “Cellular Uptake” (Axcess (UK) Ltd, priority 2020, published 2023).
Where two headings read alike, the source gives them in different places.

Tests used:
Caco-2 cells [1] = test: FITC-albumin uptake with chenodeoxycholate and EDTA, DTPA or EGTA, fluorescence microscope score (Example 9); type: cell-based; conditions: 30 minutes; for enhancement of uptake over and above that seen with chenodeoxycholate alone: agent added at 1 mg/ml to chenodeoxycholate; for fluorescence score, uptake of FITC-albumin: EDTA, DTPA or EGTA 1 mg/ml where present
IEC6 cell line = conditions: chenodeoxycholate 0.5 mg/ml; different concentrations of EDTA; 15 minutes
Caco-2 cells [2] = test: FITC-albumin uptake after chlorpromazine preincubation, fluorescence microscope score (Example 4); type: cell-based; set-up: fluorescence score, uptake of FITC-albumin: key to the marks not given beside the values; conditions: for effect of preincubation with inhibitor on chenodeoxycholate-stimulated uptake of FITC-albumin: preincubation ten minutes, amiloride and nystatin in similar experiments
Caco-2 cells [3] = test: Uptake of FITC-insulin into Caco-2 cells, confocal microscope (Example 1); type: cell-based; conditions: for uptake of FITC-insulin into cells (photomicrographs): FITC-insulin 100 ug/ml alone or with sodium chenodeoxycholate 1 or 2 mg/ml, 37° C. half an hour
Description: The supernatant was then removed, replaced with 0.5 ml of 4% paraformaldehyde solution, and incubated at room temperature for 15 minutes. The paraformaldehyde was then removed, the wells were washed three times with phosphate-buffered saline, and the coverslips then treated with mounting medium and viewed under a confocal microscope. Images are set out in FIG. 1.

Caco-2 cells [4] = test: FITC-hGH uptake with chenodeoxycholate, cells in suspension, plate reader (Example 13); type: cell-based; conditions: FITC-hGH 100 ug/ml; chenodeoxycholate at different concentrations; 15 minutes
Description: 1 ml of FITC-hGH alone (concentration 100 ug/ml) or FITC-hGH containing chenodeoxycholate at different concentrations were then added.

Caco-2 cells [5] = system: Caco-2 cells
Caco-2 cells [6] = system: Caco-2 cells; set-up: key to the marks not given beside the values; conditions: twenty minutes, PG 2:1 wt:wt where present
Caco-2 cells [7] = conditions: for enhancement of uptake of the protein (FITC-albumin): chenodeoxycholate 0.5 mg/ml, EDTA or orthophenanthroline 5 mg/ml, alone or in combination
Caco-2 cells [8] = conditions: chenodeoxycholate and EDTA alone or in combination at 1 mg/ml; 15 minutes; cells in suspension
Caco-2 cells [9] = test: Uptake of FITC-albumin or FITC-Casein with chenodeoxycholate, fluorescence microscope score (Example 6); type: cell-based; conditions: FITC-labelled protein 100 ug/ml with chenodeoxycholate
Text: The experiment was repeated on two separate occasions on different days.

[10] = column Concentration of Chenodeoxycholate 0.5 mg/ml, sample alone, no preincubation
[11] = column Concentration of Chenodeoxycholate 1.0 mg/ml, sample alone, no preincubation
[12] = column Concentration of Chenodeoxycholate 1.5 mg/ml, sample alone, no preincubation

In the case of `O=C(O)CN(CCN(CC(=O)O)CC(=O)O)CCN(CC(=O)O)CC(=O)O` [DTPA], the “enhancement of uptake over and above that seen with chenodeoxycholate alone” value (Caco-2 cells [1]) is reported as “not”.
For `O=C(O)CN(CCN(CC(=O)O)CC(=O)O)CC(=O)O` [EDTA], the “enhancement of uptake of BSA by chenodeoxycholate in IEC6 cells” value (IEC6 cell line) was “augmented by EDTA in a dose-dependent fashion”.
With `N=C(N)NC(=O)c1nc(Cl)c(N)nc1N` [amiloride] the “effect of preincubation with inhibitor on chenodeoxycholate-stimulated uptake of FITC-albumin” value (shortened to “effect of preincubation with inhibitor”) (Caco-2 cells [2]) was “no reduction in uptake”.
With `C[C@H](CCC(=O)O)[C@H]1CC[C@H]2[C@@H]3[C@H](O)C[C@@H]4C[C@H](O)CC[C@]4(C)[C@H]3CC[C@]12C` [Cheno alone, sodium chenodeoxycholate] the “uptake of FITC-insulin into cells (photomicrographs)” value (Caco-2 cells [3]) was “uptake is enhanced”, the “fluorescent material in vacuoles within the cells” value (Caco-2 cells [3]; FITC-insulin 100 ug/ml, higher concentration of the bile salt (2 mg/ml)) was “clearly being seen in vacuoles within the cells” and the “fluorescence score, uptake of FITC-albumin” value (from here on “fluorescence score, uptake”) (Caco-2 cells [2]; Cheno 1.0 mg/ml, Chlorpromazine 0 mg/ml) was “+++”. For the same molecule, the “fluorescence score, uptake” value (Caco-2 cells [2]; Cheno 1.5 mg/ml, Chlorpromazine 0 mg/ml) was “++”, the “fluorescence score, uptake” value (Caco-2 cells [1]; Chenodeoxycholate 0.5 mg/ml) was “+” and the “fluorescence score, uptake” value (Caco-2 cells [1]; Chenodeoxycholate 1 mg/ml) was “++”. For the same molecule, the “uptake of hGH (FITC-hGH) into cells” value (Caco-2 cells [4]) was “enhances the uptake of hGH into cells in a dose-dependent manner”, the “fluorescence score, uptake” value (Caco-2 cells [5]; [10]) was “+” and the “fluorescence score, uptake” value (Caco-2 cells [5]; [11]) was “+++”. The “fluorescence score, uptake” value (Caco-2 cells [5]; [12]) was “+++”, the “fluorescence score, uptake” value (Caco-2 cells [6]; Concentration of Bile Salt 1.0 mg/ml) was “++” and the “fluorescence score, uptake” value (Caco-2 cells [6]; Concentration of Bile Salt 1.5 mg/ml) was “+++”. The “fluorescence score, uptake” value (Caco-2 cells [7]; Chenodeoxycholate 0.5 mg/ml, EDTA or orthophenanthroline 5 mg/ml where present, twenty-five minutes) was “+”, the “enhancement of uptake of the protein (FITC-albumin)” value (Caco-2 cells [7]) was “neither chenodeoxycholate nor EDTA were able to enhance uptake” and the “enhancement of uptake of FITC-albumin” value (Caco-2 cells [8]) was “too low to enhance uptake”.
`C[C@H](CCC(=O)O)[C@H]1CC[C@H]2[C@@H]3[C@@H](O)C[C@@H]4C[C@H](O)CC[C@]4(C)[C@H]3CC[C@]12C` [Urso, sodium ursodeoxycholate] was tested, and the “fluorescence score, uptake” value (Caco-2 cells [5]; Urso preincubation 0.1 mg/ml, Chenodeoxycholate 0.5 mg/ml) was “−”, the “fluorescence score, uptake” value (Caco-2 cells [5]; Urso preincubation 0.1 mg/ml, Chenodeoxycholate 1.0 mg/ml) was “++” and the “fluorescence score, uptake” value (Caco-2 cells [5]; Urso preincubation 0.1 mg/ml, Chenodeoxycholate 1.5 mg/ml) was “++”. The “fluorescence score, uptake” value (Caco-2 cells [5]; Urso preincubation 0.5 mg/ml, Chenodeoxycholate 0.5 mg/ml) was “−”, the “fluorescence score, uptake” value (Caco-2 cells [5]; Urso preincubation 0.5 mg/ml, Chenodeoxycholate 1.0 mg/ml) was “+” and the “fluorescence score, uptake” value (Caco-2 cells [5]; Urso preincubation 0.5 mg/ml, Chenodeoxycholate 1.5 mg/ml) was “++”. The “fluorescence score, uptake” value (Caco-2 cells [5]; [10]) was “−”, the “fluorescence score, uptake” value (Caco-2 cells [5]; [11]) was “−” and the “fluorescence score, uptake” value (Caco-2 cells [5]; [12]) was “−”. For the same molecule, the “effect of preincubation on chenodeoxycholate-stimulated uptake of FITC-albumin” value (Caco-2 cells [5]; preincubation ten minutes) was “concentration-dependent inhibition of uptake”.
For `c1cnc2c(c1)ccc1cccnc12` [o-phenanthroline], the “enhancement of uptake of the protein (FITC-albumin)” value (Caco-2 cells [7]) was “does not have this effect”.
In the case of `O=C(O)CN(CCOCCOCCN(CC(=O)O)CC(=O)O)CC(=O)O` [EGTA], the “enhancement of uptake over and above that seen with chenodeoxycholate alone” value (Caco-2 cells [1]) is reported as “not”.
With “insulin: FITC-insulin, fluorescent labelled protein cargo” the “uptake of FITC-insulin into cells (photomicrographs)” value (Caco-2 cells [3]) was “very little uptake”.
In the case of `CN(C)CCCN1c2ccccc2Sc2ccc(Cl)cc21` [Chlorpromazine, chlorpromazine], the “fluorescence score, uptake” value (Caco-2 cells [2]; 5000 ug/mL) is reported as “++” and the “effect of preincubation with inhibitor” value (Caco-2 cells [2]) is reported as “concentration-dependent inhibition of uptake”.
For `C[C@@H]1[C@H](O)[C@@H](C)/C=C/C=C/CC/C=C/C=C/C=C/C=C/C(O[C@H]2O[C@H](C)[C@@H](O)[C@H](N)[C@@H]2O)CC2O[C@](O)(CC(O)C(O)CCC(O)CC(O)CC(O)CC(=O)O[C@H]1C)CC(O)C2C(=O)O` (some centres unmarked) [nystatin], the “effect of preincubation with inhibitor” value (Caco-2 cells [2]) was “no reduction in uptake”.
Casein was tested, and the “extent of chenodeoxycholate-mediated uptake of the protein” value (Caco-2 cells [9]) was “uptake of a similar extent”.
